Measured values as given in ChEMBL document CHEMBL3885881, “DrugMatrix”.

Species on record: Rattus norvegicus
Experiment: DrugMatrix - Regimen: Daily Repeat
Format: toxicity, organism-based, Sprague-Dawley
Set-up: regimen Daily Repeat, gender Male, age 6-8 weeks
Conditions: in vivo, po, route oral GAVAGE, vehicle 100 % WATER; for ABSOLUTE BASOPHIL / ABSOLUTE EOSINOPHIL / ABSOLUTE LYMPHOCYTE / ABSOLUTE MONOCYTE / ABSOLUTE SEGMENTED NEUTROPHIL / BASOPHIL / EOSINOPHIL / ERYTHROCYTE COUNT / HEMATOCRIT / HEMOGLOBIN / LEUKOCYTE COUNT / LYMPHOCYTE / MEAN CORPUSCULAR HEMOGLOBIN / MEAN CORPUSCULAR HEMOGLOBIN CONCENTRATION / MEAN CORPUSCULAR VOLUME / MONOCYTE / NEUTROPHIL / NUCLEATED RED BLOOD CELLS / PLATELET COUNT: tissue Blood; for ALANINE AMINOTRANSFERASE / ALBUMIN / ALKALINE PHOSPHATASE / ASPARTATE AMINOTRANSFERASE / BLOOD UREA NITROGEN / CARBON DIOXIDE / CHLORIDE / CHOLESTEROL / CREATINE PHOSPHOKINASE / CREATININE / GLUCOSE / LACTATE DEHYDROGENASE / LIPASE / PHOSPHORUS / POTASSIUM / SODIUM / TOTAL BILIRUBIN / TOTAL PROTEIN / URIC ACID: tissue Plasma
[1] = 0 mg/kg, 72 h, dose level Control, time 3 day
[2] = 0 mg/kg, 120 h, dose level Control, time 5 day
[3] = 160 mg/kg, 72 h, dose level Low, time 3 day

## N[C@@H](Cc1ccc(O)c(O)c1)C(=O)O [LEVODOPA]
[1]
  ABSOLUTE BASOPHIL: 0 CELLS/uL
  ABSOLUTE EOSINOPHIL: 86.33 CELLS/uL
  ABSOLUTE LYMPHOCYTE: 12090.17 CELLS/uL
  ABSOLUTE MONOCYTE: 166.67 CELLS/uL
  ABSOLUTE SEGMENTED NEUTROPHIL: 1090.17 CELLS/uL
  BASOPHIL: 0%
  EOSINOPHIL: 0.67%
  ERYTHROCYTE COUNT: 5.57 x10E6/uL
  HEMATOCRIT: 35.33%
  HEMOGLOBIN: 13.83 G/DL
  LEUKOCYTE COUNT: 13.43 x10E3/uL
  LYMPHOCYTE: 89.83%
  MEAN CORPUSCULAR HEMOGLOBIN: 24.88 pg
  MEAN CORPUSCULAR HEMOGLOBIN CONCENTRATION: 39.15 G/DL
  MEAN CORPUSCULAR VOLUME: 63.52 fL
  MONOCYTE: 1.17%
  NEUTROPHIL: 8.33%
  NUCLEATED RED BLOOD CELLS: 0 /100WBC
  PLATELET COUNT: 1181.33 x10E3/uL
  ALANINE AMINOTRANSFERASE: 48.33 u/L
  ALBUMIN: 4.1 G/DL
  ALKALINE PHOSPHATASE: 395 u/L
  ASPARTATE AMINOTRANSFERASE: 81.83 u/L
  BLOOD UREA NITROGEN: 15.83 mg/dL
  CARBON DIOXIDE: 24.17 mmol/L
  CHLORIDE: 103.83 MEQ/L
  CHOLESTEROL: 63.67 mg/dL
  CREATINE PHOSPHOKINASE: 372.83 u/L
  CREATININE: 0.18 mg/dL
  GLUCOSE: 173.83 mg/dL
  LACTATE DEHYDROGENASE: 188.33 u/L
  LIPASE: 9.5 u/L
  PHOSPHORUS: 11.95 mg/dL
  POTASSIUM: 5.99 MEQ/L
  SODIUM: 144.43 MEQ/L
  TOTAL BILIRUBIN: 0.15 mg/dL
  TOTAL PROTEIN: 5.95 G/DL
  URIC ACID: 1.82 mg/dL
[2]
  ABSOLUTE BASOPHIL: 0 CELLS/uL
  ABSOLUTE EOSINOPHIL: 26.67 CELLS/uL
  ABSOLUTE LYMPHOCYTE: 7583.83 CELLS/uL
  ABSOLUTE MONOCYTE: 131.33 CELLS/uL
  ABSOLUTE SEGMENTED NEUTROPHIL: 674.83 CELLS/uL
  BASOPHIL: 0%
  EOSINOPHIL: 0.33%
  ERYTHROCYTE COUNT: 5.78 x10E6/uL
  HEMATOCRIT: 36.48%
  HEMOGLOBIN: 14.03 G/DL
  LEUKOCYTE COUNT: 8.42 x10E3/uL
  LYMPHOCYTE: 89.83%
  MEAN CORPUSCULAR HEMOGLOBIN: 24.3 pg
  MEAN CORPUSCULAR HEMOGLOBIN CONCENTRATION: 38.52 G/DL
  MEAN CORPUSCULAR VOLUME: 63.15 fL
  MONOCYTE: 1.67%
  NEUTROPHIL: 8.17%
  NUCLEATED RED BLOOD CELLS: 0 /100WBC
  PLATELET COUNT: 1186.67 x10E3/uL
  ALANINE AMINOTRANSFERASE: 50.17 u/L
  ALBUMIN: 4.07 G/DL
  ALKALINE PHOSPHATASE: 367.5 u/L
  ASPARTATE AMINOTRANSFERASE: 81.67 u/L
  BLOOD UREA NITROGEN: 16.17 mg/dL
  CARBON DIOXIDE: 32.33 mmol/L
  CHLORIDE: 101.5 MEQ/L
  CHOLESTEROL: 65.33 mg/dL
  CREATINE PHOSPHOKINASE: 255.33 u/L
  CREATININE: 0.17 mg/dL
  GLUCOSE: 139.33 mg/dL
  LACTATE DEHYDROGENASE: 95 u/L
  LIPASE: 10.5 u/L
  PHOSPHORUS: 10.38 mg/dL
  POTASSIUM: 6.11 MEQ/L
  SODIUM: 145.55 MEQ/L
  TOTAL BILIRUBIN: 0.17 mg/dL
  TOTAL PROTEIN: 5.98 G/DL
  URIC ACID: 0.93 mg/dL
[3]
  ABSOLUTE BASOPHIL: 0 CELLS/uL
  ABSOLUTE EOSINOPHIL: 48 CELLS/uL
  ABSOLUTE LYMPHOCYTE: 13173.67 CELLS/uL
  ABSOLUTE MONOCYTE: 48 CELLS/uL
  ABSOLUTE SEGMENTED NEUTROPHIL: 2130.33 CELLS/uL
  BASOPHIL: 0%
  EOSINOPHIL: 0.33%
  ERYTHROCYTE COUNT: 5.35 x10E6/uL
  HEMATOCRIT: 34.57%
  HEMOGLOBIN: 13.5 G/DL
  LEUKOCYTE COUNT: 15.4 x10E3/uL
  LYMPHOCYTE: 85.67%
  MEAN CORPUSCULAR HEMOGLOBIN: 25.23 pg
  MEAN CORPUSCULAR HEMOGLOBIN CONCENTRATION: 39.07 G/DL
  MEAN CORPUSCULAR VOLUME: 64.63 fL
  MONOCYTE: 0.33%
  NEUTROPHIL: 13.67%
  NUCLEATED RED BLOOD CELLS: 0 /100WBC
  PLATELET COUNT: 1267 x10E3/uL
  ALANINE AMINOTRANSFERASE: 43.67 u/L
  ALBUMIN: 4 G/DL
  ALKALINE PHOSPHATASE: 349.67 u/L
  ASPARTATE AMINOTRANSFERASE: 93.67 u/L
  BLOOD UREA NITROGEN: 15.67 mg/dL
  CARBON DIOXIDE: 22 mmol/L
  CHLORIDE: 103.33 MEQ/L
  CHOLESTEROL: 61 mg/dL
  CREATINE PHOSPHOKINASE: 665.33 u/L
  CREATININE: 0.14 mg/dL
  GLUCOSE: 158.33 mg/dL
  LACTATE DEHYDROGENASE: 401 u/L
  LIPASE: 8.67 u/L
  PHOSPHORUS: 12.63 mg/dL
  POTASSIUM: 5.77 MEQ/L
  SODIUM: 144.43 MEQ/L
  TOTAL BILIRUBIN: 0.2 mg/dL
  TOTAL PROTEIN: 5.73 G/DL
  URIC ACID: 1.87 mg/dL
